This is an account of results in ChEMBL document CHEMBL1137998 (Bioorg Med Chem Lett, 2004).

In general, IC50 refers to the concentration that inhibits the measured activity by half. A higher IC50 goes with a need for much substance. The EC50 is the concentration giving half of the maximal effect. Read a low EC50 as an effect from little substance.

One experiment concerns HeLa. Nature of the experiment: Concentration required to inhibit growth of human cervical HeLa carcinoma cell line. The class given is functional, cell-based.
The test system of the next experiment is PC-3. The experiment can be described thus: Concentration required to inhibit growth of human prostate PC-3 carcinoma cell line. The class given is functional, cell-based.
Experiment [1] has as its target T1, DNA topoisomerase 1 (Homo sapiens) (UniProt P11387).
T1 sequence (whole entry): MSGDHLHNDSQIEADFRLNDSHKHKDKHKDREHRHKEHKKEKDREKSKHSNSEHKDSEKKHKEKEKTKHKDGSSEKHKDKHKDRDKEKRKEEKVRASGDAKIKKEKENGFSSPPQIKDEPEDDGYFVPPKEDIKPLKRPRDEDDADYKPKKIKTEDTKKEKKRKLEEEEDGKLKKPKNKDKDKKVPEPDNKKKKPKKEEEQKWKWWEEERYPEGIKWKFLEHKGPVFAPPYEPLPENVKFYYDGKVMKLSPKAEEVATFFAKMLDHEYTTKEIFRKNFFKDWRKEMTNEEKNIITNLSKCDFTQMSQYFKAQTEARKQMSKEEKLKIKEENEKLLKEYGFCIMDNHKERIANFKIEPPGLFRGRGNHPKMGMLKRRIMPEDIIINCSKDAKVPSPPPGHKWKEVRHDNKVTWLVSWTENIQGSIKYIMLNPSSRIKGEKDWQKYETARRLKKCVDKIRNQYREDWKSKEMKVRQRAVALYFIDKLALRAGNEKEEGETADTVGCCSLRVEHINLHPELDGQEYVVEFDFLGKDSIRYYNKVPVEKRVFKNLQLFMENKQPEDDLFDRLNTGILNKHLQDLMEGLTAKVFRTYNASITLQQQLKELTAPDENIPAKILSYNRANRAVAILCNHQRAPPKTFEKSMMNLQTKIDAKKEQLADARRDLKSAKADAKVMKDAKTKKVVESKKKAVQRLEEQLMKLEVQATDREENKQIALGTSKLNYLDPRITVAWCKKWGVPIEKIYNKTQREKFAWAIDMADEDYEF
Nature of the experiment: Stability constant for DNA topoisomerase I complex in competitive DNA assay.

A further experiment has as its target T2, DNA topoisomerase 1 (Homo sapiens, UniProt P11387).
T2 sequence (P11387 whole entry): T1 sequence (whole entry)
Nature of the experiment: Effective concentration against DNA topoisomerase I.

As to `CC[C@@]1(O)C(=O)OCc2c1cc1n(c2=O)Cc2c-1nc1cc3c(cc1c2-c1ccc(Cl)cc1)OCO3`, the IC50 in the experiment with HeLa (Homo sapiens, HeLa) was determined as 26 nM; in the experiment with PC-3 (Homo sapiens, PC-3), 8.2 nM. The K app in experiment [1] was 0.008 min⁻¹. The 50% effective concentration (EC50) at DNA topoisomerase 1 worked out at 1160 nM.
As to `CCc1c2c(nc3ccc(O)cc13)-c1cc3c(c(=O)n1C2)COC(=O)[C@]3(O)CC` (stereo in doubt; form 2) [7-ETHYL-10-HYDROXYCAMPTOTHECIN], the half-maximal inhibitory concentration (IC50) amounted to 38.8 nM in the experiment on HeLa (hela) and 35.3 nM in the experiment on PC-3 (pc-3). This compound also yielded a concentration for a half-maximal effect (EC50) at DNA topoisomerase 1 of 70 nM.
On to `CC[C@@]1(O)C(=O)OCc2c1cc1n(c2=O)Cc2cc3cc4c(cc3nc2-1)OCO4`, for which the IC50 in the experiment with HeLa (Homo sapiens, HeLa) is 9.6 nM; in the experiment on PC-3 (Homo sapiens, PC-3), 8.1 nM. This compound yielded a K app in experiment [1] of 0.05 min⁻¹.
Turning to `CC[C@@]1(O)C(=O)OCc2c1cc1n(c2=O)Cc2c-1nc1cc3c(cc1c2-c1ccccc1)OCO3`, the IC50 turned out to be 8.1 nM in the experiment with HeLa (Homo sapiens, HeLa) and 8.1 nM with PC-3 (Homo sapiens, PC-3). The same compound showed a K app in experiment [1] of 0.005 min⁻¹. This compound showed a half-maximal effective concentration (EC50) on DNA topoisomerase 1 of 150 nM.
The compound `CCc1c2c(nc3ccc(O)cc13)-c1cc3c(c(=O)n1C2)COC(=O)[C@]3(O)CC` (stereo in doubt; form 1) displayed a K app in experiment [1] of 0.06 min⁻¹.
On to `CC[C@@]1(O)C(=O)OCc2c1cc1n(c2=O)Cc2c-1nc1cc3c(cc1c2Cc1ccccc1)OCO3`, for which the 50% inhibitory concentration (IC50) turned out to be 20.5 nM in the experiment with HeLa (Homo sapiens, HeLa) and 18.9 nM with PC-3 (Homo sapiens, PC-3). Also, the K app in experiment [1] stood at 0.05 min⁻¹. For the same compound, the half-maximal effective concentration (EC50) on DNA topoisomerase 1 worked out at 1950 nM.
For `CC[C@@]1(O)C(=O)OCc2c1cc1n(c2=O)Cc2c-1nc1cc3c(cc1c2-c1ccc(C(F)(F)F)cc1)OCO3` the same measures were 6.9 nM, 13.4 nM, 0.007 min⁻¹ and 160 nM.
On the same counts, the results for `CCc1c2c(nc3cc4c(cc13)OCO4)-c1cc3c(c(=O)n1C2)COC(=O)[C@]3(O)CC` are 13.9 nM, 10 nM, 0.03 min⁻¹ and 270 nM.
`CCc1c2c(nc3ccc(O)cc13)-c1cc3c(c(=O)n1C2)COC(=O)[C@]3(O)CC` (stereo in doubt; form 1) [7-ETHYL-10-HYDROXYCAMPTOTHECIN]: the IC50 with HeLa (Homo sapiens, HeLa) came to 25.7 nM; in the experiment on PC-3 (Homo sapiens, PC-3), 35.6 nM. This compound also came in with an EC50 on DNA topoisomerase 1 of 320 nM.
In the case of `CC[C@@]1(O)C(=O)OCc2c1cc1n(c2=O)Cc2c-1nc1cc3c(cc1c2-c1ccc(F)cc1)OCO3`, the IC50 in the experiment on HeLa (Homo sapiens, HeLa) was determined as 16.2 nM; in the experiment with PC-3 (Homo sapiens, PC-3) it was 6.3 nM. Further, the K app in experiment [1] stood at 0.004 min⁻¹. For the same compound, at DNA topoisomerase 1, the EC50 turned out to be 1390 nM.
`CCc1c2c(nc3ccc(O)cc13)-c1cc3c(c(=O)n1C2)COC(=O)[C@]3(O)CC` (stereo in doubt; form 2) gave a K app in experiment [1] of 0.12 min⁻¹.
Take `CCCCc1c2c(nc3ccccc13)-c1cc3c(c(=O)n1C2)COC(=O)[C@]3(O)CC`: the half-maximal inhibitory concentration (IC50) in the experiment with HeLa (Homo sapiens, HeLa) came out at 37.3 nM; in the experiment on PC-3 (Homo sapiens, PC-3), 48.7 nM. This compound gave a K app in experiment [1] of 0.05 min⁻¹. This compound also registered a concentration for a half-maximal effect (EC50) on DNA topoisomerase 1 of 200 nM.
Turning to `CC[C@@]1(O)C(=O)OCc2c1cc1n(c2=O)Cc2c-1nc1cc3c(cc1c2C1CCCC1)OCO3`, the 50% inhibitory concentration (IC50) in the experiment on HeLa (Homo sapiens, HeLa) is 6.2 nM; in the experiment with PC-3 (Homo sapiens, PC-3), 9 nM. In experiment [1], this compound registered a K app of 0.02 min⁻¹. Also, a half-maximal effect on DNA topoisomerase 1 (EC50) was put at 190 nM.
Consider `CC[C@@]1(O)C(=O)OCc2c1cc1n(c2=O)Cc2c-1nc1ccccc1c2C(C)(C)C`, for which the 50% inhibitory concentration (IC50) in the experiment on HeLa (Homo sapiens, HeLa) was found to be 204 nM; in the experiment on PC-3 (Homo sapiens, PC-3), 308 nM. For the same compound, the K app in experiment [1] came out at 0.26 min⁻¹. At DNA topoisomerase 1, this compound returned an EC50 of 240 nM.
For the compound `CC[C@@]1(O)C(=O)OCc2c1cc1n(c2=O)Cc2c-1nc1cc3c(cc1c2-c1ccc(C)cc1)OCO3`, the IC50 with HeLa (Homo sapiens, HeLa) came out at 2 nM; in the experiment on PC-3 (Homo sapiens, PC-3), 8.3 nM. The same compound showed a K app in experiment [1] of 0.005 min⁻¹. Moreover, on DNA topoisomerase 1, it took 1040 nM to reach a half-maximal effect (EC50).
On the same counts, the results for `CC[C@@]1(O)C(=O)OCc2c1cc1n(c2=O)Cc2c-1nc1ccccc1c2CC(C)C` are 1310 nM, 170 nM, 0.11 min⁻¹ and 450 nM.
For `CC[C@@]1(O)C(=O)OCc2c1cc1n(c2=O)Cc2cc3ccccc3nc2-1` [CAMPTOTHECIN], the half-inhibitory concentration (IC50) in the experiment on HeLa (Homo sapiens, HeLa) is 117 nM; in the experiment with PC-3 (Homo sapiens, PC-3), 1410 nM. The K app in experiment [1] was 0.14 min⁻¹.
Consider `CC[C@@]1(O)C(=O)OCc2c1cc1n(c2=O)Cc2c-1nc1ccccc1c2Cc1ccccc1`, for which the half-inhibitory concentration (IC50) in the experiment with HeLa (Homo sapiens, HeLa) was 80.9 nM; with PC-3 (Homo sapiens, PC-3), 51.2 nM. In experiment [1], this compound showed a K app of 0.24 min⁻¹. The compound further registered a concentration giving a half-maximal response (EC50) on DNA topoisomerase 1 of 4560 nM.
Regarding `CC[C@@]1(O)C(=O)OCc2c1cc1n(c2=O)Cc2c-1nc1cc3c(cc1c2C1CCCCC1)OCO3`, the IC50 was 9 nM in the experiment with HeLa (Homo sapiens, HeLa) and 11.5 nM in the experiment with PC-3 (Homo sapiens, PC-3). The K app in experiment [1] turned out to be 0.03 min⁻¹. For the same compound, the concentration for a half-maximal effect (EC50) at DNA topoisomerase 1 stood at 1000 nM.
